Reference: patent US20260007651A1, “Effect of YEL002 on Conditions and Diseases” (RadMit, Inc., priority 2022, published 2026)

System: lymphoma
Experiment: Lymphoma incidence in mice (National Institute of Health experiment)
Assay type: in vivo
Details: reduced from 10-20%
Description: This was observed after treating mice right after birth, if humans are treated later in life it is possible that only 10 or 5 years are added and probably more for DNA repair deficient diseases like ataxia telangiectasia (ATM) which is still very substantial.

COc1ccc2cc(-c3nc4ccc(C)cn4c3NCc3ccco3)c(=O)[nH]c2c1 [YEL002]
spontaneous frequency of lymphoma: 0%
